Test results as given in patent US20220023258A1, “METHODS OF TREATING CONDITIONS RELATED TO THE S1P1 RECEPTOR” (Arena Pharmaceuticals, Inc., priority 2018, published 2022).
“Also recorded” adds a separate entry of the source. Structures can show the parent of a compound that is named as a salt.

Tests used:
[1] = system: patients with ulcerative colitis; experiment: Dose-ranging study in ulcerative colitis: safety; settings: for serious adverse events (SAEs): placebo 11.1%;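 on all read-outs here: Double-blind randomized parallel-group trial versus placebo, with the study drug given orally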
Description: Patients were instructed to take their capsule on an empty stomach (overnight fast of approximately 8 hours) and to avoid eating for approximately 1 hour after dosing.

lymphocytes = experiment: Multiple ascending dose study: lymphocyte counts; assay type: in vivo, human; settings: for Lymphocytes On Treatment Mean (SD) / Lymphocytes Percent Change from Baseline Mean / Lymphocytes Percent Change from Baseline Median / Lymphocytes Percent Change from Baseline Min, Max: day 21
Description: (§1) A randomized, double-blind, placebo-controlled, sequential, ascending, multiple dose study to assess the safety, tolerability, and pharmacokinetics of the L-arginine salt of Compound 1 administered to healthy adult subjects was conducted. This study was designed to evaluate the safety, tolerability, pharmacokinetics, and pharmacodynamics of the L-arginine salt of Compound 1.
(§2) Cohort 1 was dosed with 0.7 mg (by administering two 0.35 mg formulations) for 21 days. Cohort 2 was dosed with 1.35 mg (by administering both a 0.35 mg formulation and a 1 mg formulation) for 21 days. Cohort 3 was dosed with 2.0 mg for 21 days. Cohort 4 was dosed with 0.35 mg for 7 days and then with 2.0 mg for 14 days. Cohort 5 was dosed with 0.5 for 7 days and then with 3.0 mg (by administering both a 1 mg formulation and a 2 mg formulation) for 14 days.

healthy adult subjects = experiment: Multiple ascending dose study: heart rate, blood pressure, QTc; assay type: in vivo, human; settings: for Maximum post-dose QTc, Change from Baseline Mean / Maximum post-dose QTc, Change from Baseline Median / Maximum post-dose QTc, Change from Baseline Min, Max / Maximum post-dose QTc, On Treatment Mean (SD): Day 1 to Day 23
Description: as §1, §2
The following safety assessments were conducted: physical examinations with ophthalmoscopy, clinical laboratory tests (serum chemistry, coagulation, and urinalysis), vital signs, continuous telemetry (12 lead ECG), safety ECGs, pulmonary function testing (PFT), serum protein electrophoresis (SPEP) and serum immunoelectrophoresis (IEP), and adverse event reporting.

[2] = 0.35 mg for 7 days then 2.0 mg for 14 days
[3] = 0.5 mg for 7 days then 3.0 mg for 14 days
[4] = Day 1 to Day 28, 0.35 mg for 7 days then 2.0 mg for 14 days

O=C(O)C[C@H]1CCc2c1[nH]c1ccc(OCc3ccc(C4CCCC4)c(C(F)(F)F)c3)cc21 [L-arginine salt of Compound 1]
% of Patients with Serious TEAE ([1]; 1 mg (n = 52)): (5.8) %
% of Patients with TEAE Leading to Discontinuation of Study Drug ([1]; 1 mg (n = 52)): (5.8) %
% of Patients with any TEAE ([1]; 1 mg (n = 52)): (59.6) %
Number of Deaths of Any Reason ([1]; 1 mg (n = 52)): 0
Number of Patients with Serious TEAE ([1]; 1 mg (n = 52)): 3
Number of Patients with TEAE Leading to Discontinuation of Study Drug ([1]; 1 mg (n = 52)): 3
Number of Patients with any TEAE ([1]; 1 mg (n = 52)): 31
discontinuations from study related to bradycardia or AV block ([1]; 1 mg and 2 mg q.d., 12 weeks): no discontinuations from study related to bradycardia or AV block
liver function tests (LFTs) compared to placebo ([1]; 1 mg and 2 mg q.d., 12 weeks): no increases in liver function tests
reports of macular edema or pulmonary function test abnormalities ([1]; 1 mg and 2 mg q.d., 12 weeks): no reports of macular edema or pulmonary function test abnormalities; also recorded: no reports of macular edema; and no reports of abnormal pulmonary function tests
serious adverse events related to heart rate changes or AV block ([1]; 1 mg and 2 mg q.d., 12 weeks): No serious adverse events related to heart rate changes or AV block
severe or life-threatening infection ([1]; 1 mg and 2 mg q.d., 12 weeks): No severe or life-threatening infection occurred
tolerability ([1]; 1 mg and 2 mg q.d., 12 weeks): well tolerated
serious adverse events (SAEs) ([1]; 1 mg q.d.): 5.8%
% of Patients with TEAE Leading to Discontinuation of Study Drug ([1]; 2 mg (n = 50)): (8.0) %
% of Patients with any TEAE ([1]; 2 mg (n = 50)): (56.0) %
Number of Deaths of Any Reason ([1]; 2 mg (n = 50)): 0
Number of Patients with Serious TEAE ([1]; 2 mg (n = 50)): 0
Number of Patients with TEAE Leading to Discontinuation of Study Drug ([1]; 2 mg (n = 50)): 4
Number of Patients with any TEAE ([1]; 2 mg (n = 50)): 28
serious adverse events (SAEs) ([1]; 2 mg q.d.): 0%
mean change (decrease) in heart rate, hourly ECGs ([1]; Day 1, any time point, both 1 mg and 2 mg groups): < 10 bpm
mean decrease in heart rate from baseline ([1]; after Day 1 through 12 weeks, either dose group (1 mg, 2 mg)): ≤ 6 bpm
Lymphocytes On Treatment Mean (SD) (lymphocytes; [2]): 0.62 (0.18) 10^3/μl
Lymphocytes Percent Change from Baseline Mean (lymphocytes; [2]): −67.34%
Lymphocytes Percent Change from Baseline Median (lymphocytes; [2]): −67.54%
Lymphocytes Percent Change from Baseline Min, Max (lymphocytes; [2]): −77.27 to −57.14%
Lymphocytes On Treatment Mean (SD) (lymphocytes; [3]): 0.62 (0.25) 10^3/μl
Lymphocytes Percent Change from Baseline Mean (lymphocytes; [3]): −66.16%
Lymphocytes Percent Change from Baseline Median (lymphocytes; [3]): −65.02%
Lymphocytes Percent Change from Baseline Min, Max (lymphocytes; [3]): −85.19 to −53.85%
Lymphocytes On Treatment Mean (SD) (lymphocytes; 0.7 mg for 21 days): 1.06 (0.28) 10^3/μl
Lymphocytes Percent Change from Baseline Mean (lymphocytes; 0.7 mg for 21 days): −41.03%
Lymphocytes Percent Change from Baseline Median (lymphocytes; 0.7 mg for 21 days): −40.37%
Lymphocytes Percent Change from Baseline Min, Max (lymphocytes; 0.7 mg for 21 days): −55.56 to −23.08%
Lymphocytes On Treatment Mean (SD) (lymphocytes; 1.35 mg for 21 days): 0.89 (0.32) 10^3/μl
Lymphocytes Percent Change from Baseline Mean (lymphocytes; 1.35 mg for 21 days): −53.43%
Lymphocytes Percent Change from Baseline Median (lymphocytes; 1.35 mg for 21 days): −51.85%
Lymphocytes Percent Change from Baseline Min, Max (lymphocytes; 1.35 mg for 21 days): −68.75 to −30.77%
Lymphocytes On Treatment Mean (SD) (lymphocytes; 2.0 mg for 21 days): 0.62 (0.18) 10^3/μl
Lymphocytes Percent Change from Baseline Mean (lymphocytes; 2.0 mg for 21 days): −68.81%
Lymphocytes Percent Change from Baseline Median (lymphocytes; 2.0 mg for 21 days): −69.44%
Lymphocytes Percent Change from Baseline Min, Max (lymphocytes; 2.0 mg for 21 days): −80.00 to −55.56%
dose with maximal effect on lymphocyte lowering (dose-dependent) (lymphocytes; multiple dosing 21 days): 2 mg
Maximum post-dose QTc, Change from Baseline Mean (healthy adult subjects; [2]): −0.10 MS
Maximum post-dose QTc, Change from Baseline Median (healthy adult subjects; [2]): 0.50 MS
Maximum post-dose QTc, Change from Baseline Min, Max (healthy adult subjects; [2]): −19.00 to 17.00 MS
Maximum post-dose QTc, On Treatment Mean (SD) (healthy adult subjects; [2]): 411.10 (19.88) MS
Maximum post-dose QTc, Change from Baseline Mean (healthy adult subjects; [3]): 5.60 MS
Maximum post-dose QTc, Change from Baseline Median (healthy adult subjects; [3]): 5.00 MS
Maximum post-dose QTc, Change from Baseline Min, Max (healthy adult subjects; [3]): −5.00 to 15.00 MS
Maximum post-dose QTc, On Treatment Mean (SD) (healthy adult subjects; [3]): 425.10 (13.90) MS
Maximum post-dose QTc, Change from Baseline Mean (healthy adult subjects; 0.7 mg for 21 days): 3.60 MS
Maximum post-dose QTc, Change from Baseline Median (healthy adult subjects; 0.7 mg for 21 days): 3.50 MS
Maximum post-dose QTc, Change from Baseline Min, Max (healthy adult subjects; 0.7 mg for 21 days): −8.00 to 16.00 MS
Maximum post-dose QTc, On Treatment Mean (SD) (healthy adult subjects; 0.7 mg for 21 days): 418.40 (16.56) MS
Maximum post-dose QTc, Change from Baseline Mean (healthy adult subjects; 1.35 mg for 21 days): 8.20 MS
Maximum post-dose QTc, Change from Baseline Median (healthy adult subjects; 1.35 mg for 21 days): 6.00 MS
Maximum post-dose QTc, Change from Baseline Min, Max (healthy adult subjects; 1.35 mg for 21 days): −5.00 to 25.00 MS
Maximum post-dose QTc, On Treatment Mean (SD) (healthy adult subjects; 1.35 mg for 21 days): 423.60 (16.14) MS
Maximum post-dose QTc, Change from Baseline Mean (healthy adult subjects; 2.0 mg for 21 days): 4.00 MS
Maximum post-dose QTc, Change from Baseline Median (healthy adult subjects; 2.0 mg for 21 days): 4.50 MS
Maximum post-dose QTc, Change from Baseline Min, Max (healthy adult subjects; 2.0 mg for 21 days): −8.00 to 13.00 MS
Maximum post-dose QTc, On Treatment Mean (SD) (healthy adult subjects; 2.0 mg for 21 days): 421.20 (10.61) MS
Minimum post-dose Diastolic BP, Change from Baseline Mean (healthy adult subjects; [4]): −7.90 mmHg
Minimum post-dose Diastolic BP, Change from Baseline Median (healthy adult subjects; [4]): −6.00 mmHg
Minimum post-dose Diastolic BP, Change from Baseline Min, Max (healthy adult subjects; [4]): −19.00 to −1.00 mmHg
Minimum post-dose Diastolic BP, On Treatment Mean (SD) (healthy adult subjects; [4]): 50.80 (5.65) mmHg
Minimum post-dose Heart Rate, Change from Baseline Mean (healthy adult subjects; [4]): −10.60 BPM
Minimum post-dose Heart Rate, Change from Baseline Median (healthy adult subjects; [4]): −7.00 BPM
Minimum post-dose Heart Rate, Change from Baseline Min, Max (healthy adult subjects; [4]): −35.00 to 3.00 BPM
Minimum post-dose Heart Rate, On Treatment Mean (SD) (healthy adult subjects; [4]): 52.00 (4.74) BPM
